Results: US20240423995A1, “C-KIT INHIBITORS AND USES FOR TREATING AND PREVENTING INFLAMMATORY CONDITIONS” (GEORGETOWN UNIVERSITY, priority 2023, published 2024)

Columns and labels:
mast cells (spleen) = experiment: MC maturation in the spleen of transgenic APP mice by flow cytometry; assay type: in vivo; settings: 20 and 40 mg/kg intraperitoneal, six weeks, vs DMSO
Procedure: The studies in this example compared the number of immature MCs to the number of mature MCs in the spleen.
12-month-old transgenic APP mice were injected intraperitoneally with 20 mg/kg BK40196, 40 mg/kg BK40196, or DMSO for six weeks before having spleens collected for analysis. Spleen samples were then treated with the three flow-conjugated antibodies and analyzed for maturation of mast cell progenitors to mature mast cells, as described in Example 5. Differences were compared using an unpaired Student's t-test.

DDR1 = target: T1, DDR1 (Homo sapiens, UniProt Q08345); experiment: KINASESEEKER competition binding assay, DDR1; settings: minimum 8-point curve, duplicate
T1 construct: purchased Luceome Biotechnologies, LLC
Procedure: Kinase assays were performed using KINASESEEKER™ (Luceome Biotechnologies, LLC; Tucson, AZ). KINASESEEKER™ is a homogeneous competition binding assay in which the displacement of an active site-dependent probe by an inhibitor is measured by a change in luminescence signal. Luminescence readout translates into a highly sensitive and robust assay with low background and minimal interference from test compounds. See J. Am. Chem. Soc., 2010, 132, 11727-11735.
Stock solutions of compounds were serially diluted in DMSO to make assay stocks. Prior to initiating IC50 determination, the test compounds were evaluated for false positives against split-luciferase. The compounds were screened against kinases at a minimum of 8 different concentrations in duplicate. For kinase assays, a 24 μL aliquot of lysate containing Cfluc-kinase and Fos-Nfluc was incubated for 2 hours with either 1 μL of DMSO (for no-inhibitor control) or compound solution in DMSO in presence of a kinase specific probe. 80 μL of luciferin assay reagent was added to each solution and luminescence was immediately measured on a luminometer.
The % Inhibition and % Activity Remaining was calculated using the following equation: […]
The % Activity Remaining was plotted against compound concentration and the IC50 was determined for each compound using a minimum 8-point curve.

KIT (L576P) = target: T2, KIT (L576P) (Homo sapiens, UniProt P10721, L576P); experiment: KINOMEscan competition binding screen, KIT (L576P); settings: for remaining binding at 10 µM: read-out: % Ctrl @ 10 μM
T2 construct: purchased Eurofins DiscoverX Corporation
Procedure: The KINOMEscan™ screening platform (Eurofins DiscoverX Corporation, San Diego, USA) was performed using an active site-directed competition binding assay to quantitatively measure interactions between BK40143, BK40197, BK40195, and BK40196 and more than 450 human kinases and disease relevant mutant variants. […] Screening “hits” were identified by measuring the amount of kinase captured in test (BK40143, BK40197, BK40195, and BK40196) versus control samples by using a quantitative and ultra-sensitive qPCR method that detects the associated DNA label. BK40143, BK40197, BK40195, and BK40196 were screened at 10 μM concentration, and results for primary screen binding interactions were reported as ‘% Ctrl’ (POC), where lower numbers indicate stronger hits and calculated as follows:
[formula] • test compound=BK40143 or BK40197 or BK40195 or BK40196 • negative control=DMSO (100% Ctrl) • positive control=control compound (0% Ctrl)
Based on screening data of profiled compounds, a proportional relationship between primary screening results and corresponding compound/target affinities can be described as binding constants (Kd values) for the indicated ranges of percent of control (PoC) values, with tighter binding (higher affinity) interactions associated with lower PoC values, and weaker binding (lower affinity) associated with higher PoC values. Briefly, kinase-tagged T7 phage strains were grown in parallel in 24-well blocks in an E. coli host derived from the BL21 strain. E. coli were grown to log-phase and infected with T7 phage from a frozen stock (multiplicity of infection=0.4) and incubated with shaking at 32° C. until lysis (90-150 minutes). The lysates were centrifuged (6,000×g) and filtered ([…]) to remove cell debris. The remaining kinases were produced in HEK-293 cells and subsequently tagged with DNA for qPCR detection. Streptavidin-coated magnetic beads were treated with biotinylated small molecule ligands for 30 minutes at room temperature to generate affinity resins for kinase assays. The liganded beads were blocked with excess biotin and washed with blocking buffer (SeaBlock (Pierce), 1% BSA, 0.05% Tween 20, 1 mM DTT) to remove unbound ligand and to reduce non-specific phage binding. Binding reactions were assembled by combining kinases, liganded affinity beads, and test compounds in 1× binding buffer (20% SeaBlock, 0.17×PBS, 0.05% Tween 20, 6 mM DTT). Test compounds were prepared as 100× stocks in 100% DMSO and directly diluted into the assay. All reactions were performed in polypropylene 384-well plates in a final volume of 0.02 ml. The assay plates were incubated at room temperature with shaking for 1 hour and the affinity beads were washed with wash buffer (1×PBS, 0.05% Tween 20). The beads were then re-suspended in elution buffer (1×PBS, 0.05% Tween 20, 0.5 μM non-biotinylated affinity ligand) and incubated at room temperature with shaking for 30 minutes. The kinase concentration in the eluates was measured by qPCR.

[1] = Maximum tolerated dose in wild-type C57BL/6 mice; settings: mouse, in vivo, ip, intraperitoneal injection, per day
Procedure: (§1) Wild-type C57BL/6 mice were dosed with BK40197 via intraperitoneal injection at 50 mg/kg (maximum tolerated dose) per day for five days before blood samples were taken and peripheral mast cells were isolated via flow cytometry. Cell gating was performed using antibodies against specific epitopes for cells: CD45 antibody for leukocytes, FceR1 antibody for mature mast cells, and CD117 antibody for immature and mature mast cells.

peripheral mast cells = experiment: Mature peripheral mast cells in blood of wild-type C57BL/6 mice by flow cytometry; assay type: in vivo; settings: 50 mg/kg per day intraperitoneal for five days, p=0.06
Procedure: as §1

T1 sequence (Q08345 19-913): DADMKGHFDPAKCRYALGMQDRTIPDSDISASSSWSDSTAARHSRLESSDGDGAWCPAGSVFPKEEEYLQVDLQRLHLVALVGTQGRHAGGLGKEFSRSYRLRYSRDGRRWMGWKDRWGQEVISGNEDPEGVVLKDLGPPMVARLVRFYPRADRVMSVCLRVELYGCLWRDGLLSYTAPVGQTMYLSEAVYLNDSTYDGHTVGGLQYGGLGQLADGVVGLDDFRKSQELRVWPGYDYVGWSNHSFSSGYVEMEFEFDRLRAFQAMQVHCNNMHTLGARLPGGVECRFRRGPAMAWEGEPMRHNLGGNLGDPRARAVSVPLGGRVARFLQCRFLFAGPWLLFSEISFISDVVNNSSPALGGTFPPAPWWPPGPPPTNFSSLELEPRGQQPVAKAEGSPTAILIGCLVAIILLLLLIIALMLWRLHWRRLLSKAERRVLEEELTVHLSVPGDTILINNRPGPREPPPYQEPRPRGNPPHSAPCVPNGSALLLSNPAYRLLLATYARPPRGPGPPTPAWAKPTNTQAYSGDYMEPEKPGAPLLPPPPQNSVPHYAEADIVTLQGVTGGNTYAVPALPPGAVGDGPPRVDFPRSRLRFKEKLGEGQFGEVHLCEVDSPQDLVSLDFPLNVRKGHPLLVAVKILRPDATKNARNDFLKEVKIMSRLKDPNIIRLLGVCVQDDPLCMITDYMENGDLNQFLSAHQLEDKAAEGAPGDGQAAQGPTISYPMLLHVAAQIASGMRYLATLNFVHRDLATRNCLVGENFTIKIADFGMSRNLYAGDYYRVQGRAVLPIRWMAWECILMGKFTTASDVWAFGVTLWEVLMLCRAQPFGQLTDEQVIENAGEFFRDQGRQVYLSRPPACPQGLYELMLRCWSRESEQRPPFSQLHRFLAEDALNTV
T2 sequence (P10721 26-976 L576P): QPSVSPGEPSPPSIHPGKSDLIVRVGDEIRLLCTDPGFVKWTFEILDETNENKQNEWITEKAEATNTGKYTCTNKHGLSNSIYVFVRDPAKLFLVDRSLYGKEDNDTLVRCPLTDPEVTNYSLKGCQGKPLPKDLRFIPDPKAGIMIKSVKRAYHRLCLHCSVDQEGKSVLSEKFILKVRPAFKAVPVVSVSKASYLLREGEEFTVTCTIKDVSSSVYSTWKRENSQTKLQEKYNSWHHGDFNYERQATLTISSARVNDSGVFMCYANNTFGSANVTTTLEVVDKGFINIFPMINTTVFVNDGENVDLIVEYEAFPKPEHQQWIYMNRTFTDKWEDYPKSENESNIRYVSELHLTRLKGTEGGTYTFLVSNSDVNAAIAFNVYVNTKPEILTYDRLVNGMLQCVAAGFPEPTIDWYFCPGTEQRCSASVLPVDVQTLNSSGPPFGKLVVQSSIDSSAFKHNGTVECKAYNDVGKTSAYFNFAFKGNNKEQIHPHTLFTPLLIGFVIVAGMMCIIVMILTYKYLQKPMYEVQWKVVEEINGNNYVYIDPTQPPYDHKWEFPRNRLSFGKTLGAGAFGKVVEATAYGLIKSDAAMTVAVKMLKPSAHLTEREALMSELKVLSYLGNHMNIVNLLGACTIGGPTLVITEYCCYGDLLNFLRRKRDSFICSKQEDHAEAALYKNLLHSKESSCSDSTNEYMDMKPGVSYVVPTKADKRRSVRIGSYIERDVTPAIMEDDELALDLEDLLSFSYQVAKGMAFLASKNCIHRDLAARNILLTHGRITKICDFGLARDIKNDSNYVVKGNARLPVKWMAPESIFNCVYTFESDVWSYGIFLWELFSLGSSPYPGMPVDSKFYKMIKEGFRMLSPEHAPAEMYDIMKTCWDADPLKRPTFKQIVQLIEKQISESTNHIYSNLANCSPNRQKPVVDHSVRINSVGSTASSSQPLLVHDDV

Which results are given for `Cc1cccc(-c2cc3nccc(Nc4cccc(O)c4)c3s2)c1` [BK40196]?
total number of mature MCs (CD117+/FceR1+) in the spleen (mast cells (spleen); dose-dependent): significantly reduced; total number of mature MCs (FceR1+) in the spleen (mast cells (spleen); dose-dependent): significantly reduced; ratio of immature MCs (CD117 only) to mature MCs (CD117 and FceR1) in the spleen (mast cells (spleen)): increased; IC50 (DDR1): 1070 ± 130 nM; inhibition at 10 µM (KIT (L576P)): 99.2%; remaining binding at 10 µM (KIT (L576P)): 0.8%

Which results are given for `Cc1cccc(-c2cc3nccc(Nc4ccccc4)c3s2)c1` [BK40143]?
IC50 (DDR1): 7050 ± 1050 nM; inhibition at 10 µM (KIT (L576P)): 96.5%; remaining binding at 10 µM (KIT (L576P)): 3.5%

Which IC50 (DDR1) does the source give for `COc1cccc(Nc2ccnc3cc(-c4cccc(C)c4)sc23)c1` [BK40195] here?
Its IC50 is 2200 ± 260 nM.

What about the inhibition at 10 µM (KIT (L576P)) of the same compound?
The inhibition at 10 µM was 91.9%.

What about the remaining binding at 10 µM (KIT (L576P)) of the same compound?
The remaining binding at 10 µM was 8.1%.

Which MTD at 5 days [1] does the source give for `Cc1cccc(-c2cc3nccc(N4CCOCC4)c3s2)c1` [BK40197] here?
The MTD at 5 days was 50 mg/kg.

What about the inhibition at 10 µM (KIT (L576P)) of the same compound?
The inhibition at 10 µM was 98.2%.

And the remaining binding at 10 µM (KIT (L576P))?
The remaining binding at 10 µM was 1.8%.

What about the “reduction of gating for mature MCs (CD117+/FceR1+) compared to DMSO” value (peripheral mast cells) of the same compound?
The value was 48%.
